Reference: patent publication US20230374148A1, “BINDING MOLECULES THAT MULTIMERISE CD45” (UCB BIOPHARMA SRL, priority 2020, published 2023)

Key:
MC116 = assay: Apoptosis of cell lines: MC116; format: cell-based; details: MC116, 21 hrs, 500 nM
Description: (§1) The following cell lines representing various leukaemia's and lymphoma's, as classified by ATCC (www.atcc.org/), were used: Jurkat—acute T-cell leukaemia; CCRF-SB—B-cell acute lymphoblastic leukaemia; MC116—B-cell undifferentiated lymphoma; Raji, Ramos—Burkitt lymphoma (rare form of B-cell non-Hodgkin lymphoma); SU-DHL-4, SU-DHL-5, SU-DHL-8, NU-DUL-1, OCI-Ly3—Diffuse large B-cell lymphoma; THP-1—acute monocytic leukaemia; and Dakiki—B cell nasopharyngeal carcinoma.
(§2) Prior to an assay being performed, 1 vial of each of the above cell lines was thawed in a 37° C. water bath and then added to 20 ml complete media (RPMI 1640+2 mM GlutaMAX+1% Pen/Strep, all previous supplied by Invitrogen, +10% Fetal Bovine Serum (FBS), Sigma Aldrich). Cells were spun (500 g, 5 min, at RT) and re-suspended in 20 ml complete media to wash and spun again. Cells were resuspended in 10 ml complete media and then counted using a ChemoMetec NucleoCounter NC-3000. 6×10^6 cells of each cell line were spun (500 g, 5 min, at RT) and re-suspended in 4.8 ml complete media. 1×10^5 cells in 80 μl were then added to each well of a Corning Costar 96-well, cell culture treated, U-shaped-bottom microplate (cat no. 07-200-95). The plate was rested in a 37° C., 5% CO2 incubator for 2 hrs
(§3) Stocks of 4133-6294 BYbe and NegCtrl BYbe at 2500 nM in complete media were prepared. In a Greiner 96-well non-binding microplate, both reagents were serially diluted in complete media 1 in 5, seven times to produce to form an 8-point dose curve. […] (final well concentrations 500-0.0064 nM) was added to the cells. Each concentration was produced in triplicate. Camptothecin (cat no. C9911-100MG, Sigma Aldrich) and Staurosporine (cat no. 56942-200UL, Sigma Aldrich) were added as positive controls of apoptosis. Both were diluted in complete media and added to the well to produce a final concentration of 5 μM. Additional positive controls included anti-thymocyte globulin (ATG, indicated by FDA for use in conditioning regimens), Rituximab (anti-CD20, indicated by FDA for Non-Hodgkin Lymphoma and Chronic Lymphocytic Leukaemia) and Campath (anti-CD52, indicated by FDA for B-cell Chronic Lymphocytic Leukaemia). Anti-thymocyte globulin, Rituximab and Campath were added to the wells to produce final concentrations of 200 μg/ml, 500 nM and 200 μg/ml, respectively. […]
(§4) Following the incubation, the plates were spun at 500 g, 5 min, RT, the buffer was aspirated with a BioTek ELx405 microplate washer, and the cells were re-suspended in FACS buffer (PBS+1% bovine serum albumin (BSA)+0.1% NaN3+2 mM EDTA, Sigma Aldrich) to wash and then re-spun and buffer was aspirated to leave the cells in 20 μl residual media. […] Cells were analysed using the Bio-Rad ZE5 Cell Analyzer. […]

SU-DHL-5 = assay: Apoptosis of cell lines: SU-DHL-5; format: cell-based; details: SU-DHL-5, 21 hrs, 500 nM
Description: as §1, §2, §3, §4

Ramos = assay: Apoptosis of cell lines: Ramos; format: cell-based; details: 21 hrs, 500 nM
Description: as §1, §2, §3, §4

Jurkat = assay: Apoptosis of cell lines: Jurkat; format: cell-based; details: 21 hrs, 500 nM
Description: as §1, §2, §3, §4

OCI-Ly3 = assay: Apoptosis of cell lines: OCI-Ly3; format: cell-based; details: OCI-Ly3, 21 hrs, 500 nM
Description: as §1, §2, §3, §4

SU-DHL-8 = assay: Apoptosis of cell lines: SU-DHL-8; format: cell-based; details: SU-DHL-8, 21 hrs, 500 nM
Description: as §1, §2, §3, §4

THP-1 = assay: Apoptosis of cell lines: THP-1; format: cell-based; details: THP-1, 21 hrs, 500 nM
Description: as §1, §2, §3, §4

Dakiki = assay: Apoptosis of cell lines: Dakiki; format: cell-based; details: 21 hrs, 500 nM
Description: as §1, §2, §3, §4

Raji = assay: Apoptosis of cell lines: Raji; format: cell-based; details: 21 hrs, 500 nM
Description: as §1, §2, §3, §4

CCRF-SB = assay: Apoptosis of cell lines: CCRF-SB; format: cell-based; details: 21 hrs, 500 nM
Description: as §1, §2, §3, §4

NU-DUL-1 = assay: Apoptosis of cell lines: NU-DUL-1; format: cell-based; details: NU-DUL-1, 21 hrs, 500 nM
Description: as §1, §2, §3, §4

SU-DHL-4 = assay: Apoptosis of cell lines: SU-DHL-4; format: cell-based; details: SU-DHL-4, 21 hrs, 500 nM
Description: as §1, §2, §3, §4

[1] = molecular target: T1, CD45 domains 1-4 of the extracellular domain (UniProtKB P08575, residues 225-573) with C-terminal TEV cleavage site and 10-His tag (human); assay: SPR, Biacore 3000, 25 C; Fab captured by anti-mouse F(ab)2, CD45 D1-D4 titrated 50 nM to 0.05 nM
[2] = molecular target: T1, CD45 domains 1-4 of the extracellular domain; assay: SPR, Biacore 3000, 25 C; Fab captured by anti-rabbit F(ab)2, CD45 D1-D4 titrated 50 nM to 0.05 nM

Rituximab: anti-CD20, indicated by FDA for Non-Hodgkin Lymphoma and Chronic Lymphocytic Leukaemia; positive control [reference compound]
Rituximab mean (%) cell reduction (MC116): 98.13% | Rituximab mean (%) cell reduction (SU-DHL-5): 61.26% | Rituximab mean (%) cell reduction (Ramos): 91.05% | Rituximab mean (%) cell reduction (Jurkat): 6.52% | Rituximab mean (%) cell reduction (OCI-Ly3): 19.05% | Rituximab mean (%) cell reduction (SU-DHL-8): 15.25% | Rituximab mean (%) cell reduction (THP-1): 23.12% | Rituximab mean (%) cell reduction (Dakiki): 58.55% | Rituximab mean (%) cell reduction (Raji): 87.89% | Rituximab mean (%) cell reduction (CCRF-SB): 59.87% | Rituximab mean (%) cell reduction (NU-DUL-1): 87.04% | Rituximab mean (%) cell reduction (SU-DHL-4): 79.76%

B1: 6294 mouse Fab (Fab, V domains shown)
VH: EVQLVESGAELARPGASVKMSCKASGYTFTSYTMHWVKQRPGQGLEWIGYINPSSGYTEYNQKFKDKTTLTADKSSSTAYLQLSSLTSEDSAVYYCARVGDGFYPSWLAYWGQGTLVTVSS
VL: DIQMTQSPKFLLVSAGDRVTITCKASQSVRNDVAWYQQKPGQSPKLLIFYASKRYTGVPDRFTGSGYGTDFTFTISTVQAEDLAVYFCQQDYSSPTTFGGGTKLEIK
Kd [1]: 0.085 nM | koff [1]: 0.00022 s⁻¹ | kon [1]: 2.6e+06 M⁻¹ s⁻¹

B2: 4133 rabbit Fab (Fab, V domains shown)
VH: QEQLVESGGGLVQPEGSLTLTCTASGFSFSGNYYMCWVRQAPGKGLEWIGCLYTGSSGSTYYASWAKGRFTISKTSSTTVTLQMTSLTAADTATYFCARDLGYEIDGYGGLWGQGTLVTVSS
VL: AQVLTQTPSPVSAVVGGTVSISCQASQSVYNNNNLSWYQQKPGQPPKLLIYDASKLASGVPSRFKGSGSGTQFTLTISGVQCDDAATYYCLGGYYSSGWYFAFGGGTKVVVKR
Kd [2]: 61 nM | koff [2]: 0.035 s⁻¹ | kon [2]: 570000 M⁻¹ s⁻¹
